Data reported in publication doi:10.1101/2023.11.24.568596v1 (biorxiv, 2023).

Tests used:
Conditions in all cases: binder
SLK = SLK (Homo sapiens, UniProt Q9H2G2)
TAF1 = TAF1 (Homo sapiens, UniProt P21675)
TTK = target: T1, TTK (Homo sapiens, UniProt P33981)
T1 sequence (P33981 1-857): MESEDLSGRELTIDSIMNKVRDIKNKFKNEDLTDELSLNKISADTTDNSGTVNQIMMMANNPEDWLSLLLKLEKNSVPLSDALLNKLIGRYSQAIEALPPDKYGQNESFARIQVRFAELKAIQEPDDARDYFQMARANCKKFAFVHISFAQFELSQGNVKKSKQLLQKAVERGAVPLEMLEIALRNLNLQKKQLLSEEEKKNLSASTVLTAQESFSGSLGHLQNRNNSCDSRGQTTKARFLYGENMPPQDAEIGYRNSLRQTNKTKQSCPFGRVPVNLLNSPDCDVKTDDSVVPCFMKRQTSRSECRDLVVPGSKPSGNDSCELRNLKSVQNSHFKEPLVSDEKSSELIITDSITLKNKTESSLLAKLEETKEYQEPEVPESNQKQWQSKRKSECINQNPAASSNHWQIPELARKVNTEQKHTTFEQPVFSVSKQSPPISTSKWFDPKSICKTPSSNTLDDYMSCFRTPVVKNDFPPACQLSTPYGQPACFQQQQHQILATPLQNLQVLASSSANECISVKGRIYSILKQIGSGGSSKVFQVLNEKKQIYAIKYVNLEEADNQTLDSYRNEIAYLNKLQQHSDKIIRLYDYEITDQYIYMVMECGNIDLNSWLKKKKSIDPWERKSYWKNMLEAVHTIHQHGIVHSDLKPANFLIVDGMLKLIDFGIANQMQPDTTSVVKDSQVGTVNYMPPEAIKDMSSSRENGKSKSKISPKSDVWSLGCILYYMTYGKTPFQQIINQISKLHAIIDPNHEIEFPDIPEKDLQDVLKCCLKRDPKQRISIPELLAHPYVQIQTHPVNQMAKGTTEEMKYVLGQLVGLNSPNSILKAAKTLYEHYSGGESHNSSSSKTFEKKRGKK

ULK3 = target: T2, ULK3 (Homo sapiens, UniProt Q6PHR2)
T2 sequence (Q6PHR2 1-472): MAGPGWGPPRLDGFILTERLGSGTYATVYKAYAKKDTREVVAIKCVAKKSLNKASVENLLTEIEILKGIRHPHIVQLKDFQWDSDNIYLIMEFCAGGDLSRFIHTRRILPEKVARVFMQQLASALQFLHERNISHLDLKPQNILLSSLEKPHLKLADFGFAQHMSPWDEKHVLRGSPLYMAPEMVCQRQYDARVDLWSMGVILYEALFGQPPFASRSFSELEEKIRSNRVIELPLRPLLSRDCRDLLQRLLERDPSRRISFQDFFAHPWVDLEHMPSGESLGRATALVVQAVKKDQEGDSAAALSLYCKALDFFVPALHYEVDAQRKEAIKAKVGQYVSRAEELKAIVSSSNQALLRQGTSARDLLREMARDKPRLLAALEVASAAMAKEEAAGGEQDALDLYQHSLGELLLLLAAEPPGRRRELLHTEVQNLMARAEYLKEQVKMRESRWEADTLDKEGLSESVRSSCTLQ

MST1 = target: T3, MST1 (Homo sapiens, UniProt Q13043)
T3 sequence (Q13043 1-487): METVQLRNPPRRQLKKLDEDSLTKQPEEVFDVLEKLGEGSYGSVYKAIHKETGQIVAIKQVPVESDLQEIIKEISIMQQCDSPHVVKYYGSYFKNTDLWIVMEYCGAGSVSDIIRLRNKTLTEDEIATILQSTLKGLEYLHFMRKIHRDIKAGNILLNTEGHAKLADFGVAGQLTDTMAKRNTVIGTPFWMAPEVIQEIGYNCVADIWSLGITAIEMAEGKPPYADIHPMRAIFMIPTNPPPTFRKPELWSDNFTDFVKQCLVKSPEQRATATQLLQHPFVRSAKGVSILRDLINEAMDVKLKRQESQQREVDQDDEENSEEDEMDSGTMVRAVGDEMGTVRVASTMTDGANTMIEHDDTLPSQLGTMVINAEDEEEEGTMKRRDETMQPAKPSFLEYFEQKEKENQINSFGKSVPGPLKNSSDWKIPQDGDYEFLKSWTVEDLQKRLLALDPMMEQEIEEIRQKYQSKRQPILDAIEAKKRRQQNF

MST3 = MST3 (Homo sapiens, UniProt Q9Y6E0)
MST3, sequence (Q9Y6E0 whole entry): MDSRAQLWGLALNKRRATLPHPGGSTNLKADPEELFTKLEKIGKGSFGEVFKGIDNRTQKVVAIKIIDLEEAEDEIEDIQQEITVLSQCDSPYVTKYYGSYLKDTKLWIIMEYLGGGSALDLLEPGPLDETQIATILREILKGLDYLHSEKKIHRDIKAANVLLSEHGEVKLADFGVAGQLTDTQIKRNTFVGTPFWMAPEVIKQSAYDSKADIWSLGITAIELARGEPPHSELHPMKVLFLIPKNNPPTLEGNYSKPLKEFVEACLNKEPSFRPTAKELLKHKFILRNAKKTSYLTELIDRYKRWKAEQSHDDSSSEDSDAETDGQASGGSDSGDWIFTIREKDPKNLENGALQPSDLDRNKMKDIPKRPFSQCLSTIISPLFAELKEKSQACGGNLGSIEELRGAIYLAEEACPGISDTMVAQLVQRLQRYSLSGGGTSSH

PAK1 = PAK1 (Homo sapiens, UniProt Q13153)
PAK1, sequence (Q13153 whole entry): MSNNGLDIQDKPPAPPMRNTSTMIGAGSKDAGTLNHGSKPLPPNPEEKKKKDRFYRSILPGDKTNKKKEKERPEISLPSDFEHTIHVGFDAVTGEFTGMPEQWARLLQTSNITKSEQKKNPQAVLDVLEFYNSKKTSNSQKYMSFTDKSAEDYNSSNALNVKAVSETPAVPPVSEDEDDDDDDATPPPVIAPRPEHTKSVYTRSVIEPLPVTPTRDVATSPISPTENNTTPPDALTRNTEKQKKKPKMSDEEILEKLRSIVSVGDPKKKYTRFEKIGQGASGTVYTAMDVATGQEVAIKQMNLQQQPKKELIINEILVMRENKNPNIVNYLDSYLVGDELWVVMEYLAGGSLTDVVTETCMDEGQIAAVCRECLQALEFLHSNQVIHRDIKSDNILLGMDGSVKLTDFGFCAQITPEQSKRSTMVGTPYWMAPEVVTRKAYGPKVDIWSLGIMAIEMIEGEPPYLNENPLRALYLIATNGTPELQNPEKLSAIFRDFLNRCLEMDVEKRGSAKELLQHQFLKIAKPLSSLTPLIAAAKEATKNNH

CaMK1d = CaMK1d (Homo sapiens, UniProt Q8IU85)
CaMK1d, sequence (Q8IU85 whole entry): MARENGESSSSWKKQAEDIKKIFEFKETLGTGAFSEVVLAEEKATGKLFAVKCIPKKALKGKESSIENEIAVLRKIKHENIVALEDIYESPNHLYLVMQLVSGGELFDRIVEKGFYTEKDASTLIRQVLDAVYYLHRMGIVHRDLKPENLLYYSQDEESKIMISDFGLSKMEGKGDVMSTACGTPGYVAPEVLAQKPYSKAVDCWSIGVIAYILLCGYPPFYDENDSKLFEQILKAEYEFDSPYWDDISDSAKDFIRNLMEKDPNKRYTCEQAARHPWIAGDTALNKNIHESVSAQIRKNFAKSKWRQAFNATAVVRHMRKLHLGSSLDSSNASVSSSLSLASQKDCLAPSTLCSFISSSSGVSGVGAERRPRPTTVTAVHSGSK

SLK, sequence (Q9H2G2 whole entry): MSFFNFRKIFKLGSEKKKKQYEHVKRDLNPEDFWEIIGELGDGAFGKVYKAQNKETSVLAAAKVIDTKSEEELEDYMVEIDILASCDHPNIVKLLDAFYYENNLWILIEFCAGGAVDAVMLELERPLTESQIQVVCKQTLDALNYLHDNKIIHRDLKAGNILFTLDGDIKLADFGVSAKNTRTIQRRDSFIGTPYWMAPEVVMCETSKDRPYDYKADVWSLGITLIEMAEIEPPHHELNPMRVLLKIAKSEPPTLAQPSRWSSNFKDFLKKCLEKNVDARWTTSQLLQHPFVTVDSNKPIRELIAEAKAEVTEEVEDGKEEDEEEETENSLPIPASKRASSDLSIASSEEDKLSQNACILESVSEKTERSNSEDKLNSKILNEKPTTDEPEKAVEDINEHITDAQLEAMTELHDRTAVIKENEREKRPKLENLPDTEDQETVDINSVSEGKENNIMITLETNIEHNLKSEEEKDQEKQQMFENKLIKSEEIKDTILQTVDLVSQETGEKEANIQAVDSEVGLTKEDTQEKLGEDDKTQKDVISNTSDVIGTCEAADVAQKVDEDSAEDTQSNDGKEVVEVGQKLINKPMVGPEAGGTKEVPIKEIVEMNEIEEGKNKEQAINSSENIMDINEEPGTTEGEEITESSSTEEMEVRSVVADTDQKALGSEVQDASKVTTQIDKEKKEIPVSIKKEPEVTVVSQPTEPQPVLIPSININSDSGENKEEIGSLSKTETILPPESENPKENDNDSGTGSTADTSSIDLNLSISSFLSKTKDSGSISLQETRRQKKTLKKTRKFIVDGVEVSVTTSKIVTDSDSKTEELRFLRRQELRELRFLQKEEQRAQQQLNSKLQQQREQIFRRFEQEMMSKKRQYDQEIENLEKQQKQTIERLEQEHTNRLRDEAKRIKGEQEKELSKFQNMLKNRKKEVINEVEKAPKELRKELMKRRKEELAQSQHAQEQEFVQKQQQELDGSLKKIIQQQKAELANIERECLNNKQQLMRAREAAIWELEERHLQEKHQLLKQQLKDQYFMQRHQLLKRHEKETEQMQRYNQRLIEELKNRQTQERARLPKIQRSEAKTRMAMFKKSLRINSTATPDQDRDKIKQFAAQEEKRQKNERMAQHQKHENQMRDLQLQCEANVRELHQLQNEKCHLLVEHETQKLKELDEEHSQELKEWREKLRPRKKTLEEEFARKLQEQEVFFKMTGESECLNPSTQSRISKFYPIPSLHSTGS
TAF1, sequence (P21675 whole entry): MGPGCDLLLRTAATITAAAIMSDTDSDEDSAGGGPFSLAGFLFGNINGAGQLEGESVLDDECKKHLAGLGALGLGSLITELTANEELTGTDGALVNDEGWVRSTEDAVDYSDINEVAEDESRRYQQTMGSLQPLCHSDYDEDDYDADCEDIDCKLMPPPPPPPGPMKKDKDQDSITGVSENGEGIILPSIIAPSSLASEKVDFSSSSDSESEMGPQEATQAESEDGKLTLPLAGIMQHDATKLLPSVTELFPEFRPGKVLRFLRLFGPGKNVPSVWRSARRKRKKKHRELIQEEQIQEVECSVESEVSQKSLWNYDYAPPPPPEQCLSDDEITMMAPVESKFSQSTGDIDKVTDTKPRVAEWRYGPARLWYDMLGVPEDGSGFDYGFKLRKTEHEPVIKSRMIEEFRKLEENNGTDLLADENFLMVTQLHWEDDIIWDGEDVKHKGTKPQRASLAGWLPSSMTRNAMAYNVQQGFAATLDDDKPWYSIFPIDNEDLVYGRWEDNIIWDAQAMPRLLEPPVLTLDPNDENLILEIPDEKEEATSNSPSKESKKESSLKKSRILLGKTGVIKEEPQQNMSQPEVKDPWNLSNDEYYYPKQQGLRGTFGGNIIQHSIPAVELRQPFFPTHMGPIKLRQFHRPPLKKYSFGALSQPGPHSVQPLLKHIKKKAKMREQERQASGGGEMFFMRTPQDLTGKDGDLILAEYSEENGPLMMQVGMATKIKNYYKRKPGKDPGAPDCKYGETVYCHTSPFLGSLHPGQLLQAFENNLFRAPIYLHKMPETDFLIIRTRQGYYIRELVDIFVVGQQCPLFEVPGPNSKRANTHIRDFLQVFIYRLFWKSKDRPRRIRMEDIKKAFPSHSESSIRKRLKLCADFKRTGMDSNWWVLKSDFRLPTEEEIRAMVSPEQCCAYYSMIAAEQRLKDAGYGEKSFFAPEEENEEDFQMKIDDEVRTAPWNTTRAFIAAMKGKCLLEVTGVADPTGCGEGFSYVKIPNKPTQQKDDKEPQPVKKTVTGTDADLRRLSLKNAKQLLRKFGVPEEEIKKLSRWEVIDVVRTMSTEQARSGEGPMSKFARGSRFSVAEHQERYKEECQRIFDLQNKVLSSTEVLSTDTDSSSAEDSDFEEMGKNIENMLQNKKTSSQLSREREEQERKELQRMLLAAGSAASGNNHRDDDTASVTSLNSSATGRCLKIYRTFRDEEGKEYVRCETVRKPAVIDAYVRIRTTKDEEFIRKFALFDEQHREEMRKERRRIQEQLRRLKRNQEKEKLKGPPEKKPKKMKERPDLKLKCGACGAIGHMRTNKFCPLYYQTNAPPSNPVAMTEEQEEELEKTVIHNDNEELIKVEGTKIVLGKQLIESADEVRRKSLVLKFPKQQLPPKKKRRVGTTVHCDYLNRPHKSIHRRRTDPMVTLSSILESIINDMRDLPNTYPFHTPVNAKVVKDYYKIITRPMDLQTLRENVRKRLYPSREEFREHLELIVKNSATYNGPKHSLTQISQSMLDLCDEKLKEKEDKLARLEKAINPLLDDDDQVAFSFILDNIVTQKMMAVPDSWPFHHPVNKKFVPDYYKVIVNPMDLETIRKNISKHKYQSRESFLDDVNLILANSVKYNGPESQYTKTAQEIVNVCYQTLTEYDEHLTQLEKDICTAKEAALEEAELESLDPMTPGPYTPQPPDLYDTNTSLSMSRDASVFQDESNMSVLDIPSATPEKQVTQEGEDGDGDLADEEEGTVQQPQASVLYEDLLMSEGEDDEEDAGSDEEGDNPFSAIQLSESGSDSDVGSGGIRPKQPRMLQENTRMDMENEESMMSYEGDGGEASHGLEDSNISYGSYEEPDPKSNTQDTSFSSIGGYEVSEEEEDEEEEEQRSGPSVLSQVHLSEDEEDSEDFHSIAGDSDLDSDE

Structure (SMILES): CNc1ncc2cc(-c3ccc(-c4cccc(C)n4)cc3Cl)c(=O)n(CCCCN)c2n1 [compound 20, MRLW5]
- ΔTm MRLW5 (20) (SLK): 9.1 °C
- ΔTm MRLW5 (20) (TAF1): 0.0 °C
- ΔTm MRLW5 (20) (TTK): 2.7 °C
- ΔTm MRLW5 (20) (ULK3): 8.6 °C

Structure (SMILES): CNc1ncc2cc(-c3ccc(-c4cccc(C)n4)cc3Cl)c(=O)n(CCC3CCNCC3)c2n1 [compound 22, 6-(2-Chloro-4-(6-methylpyridin-2-yl)phenyl)-2-(methylamino)-8-(2-(piperidin-4-yl)ethyl)pyrido[2,3-d]pyrimidin-7(8H)-one]
- ΔTm 22 (SLK): 3.9 °C
- ΔTm 22 (TAF1): 0.3 °C
- ΔTm 22 (TTK): 3.7 °C
- ΔTm 22 (ULK3): 9.7 °C

Structure (SMILES): CNc1ncc2cc(-c3ccc(-c4cccc(C)n4)cc3Cl)c(=O)n(C[C@H]3CC[C@H](N)CC3)c2n1 [compound 23, 23]
- ΔTm 23 (SLK): 8.3 °C
- ΔTm 23 (TAF1): -0.5 °C
- ΔTm 23 (TTK): 3.5 °C
- ΔTm 23 (ULK3): 13.5 °C

Structure (SMILES): Cc1cccc(-c2ccc(-c3cc4cnc(NC(CO)CO)nc4n(CCCCN)c3=O)c(Cl)c2)n1 [compound 24, 8-(4-Aminobutyl)-6-(2-chloro-4-(6-methylpyridin-2-yl)phenyl)-2-((1,3-dihydroxypropan-2-yl)amino)pyrido[2,3-d]pyrimidin-7(8H)-one]
- ΔTm MR24 (24) (SLK): 1.9 °C
- ΔTm MR24 (24) (TAF1): -0.1 °C
- ΔTm MR24 (24) (TTK): -3.0 °C
- ΔTm MR24 (24) (ULK3): 7.2 °C
- dTm MST1 (MST1): 2.1 °C
- dTm MST3 (MST3): 10.6 °C
- dTm PAK1 (PAK1): 5.1 °C

Structure (SMILES): Cc1cccc(-c2ccc(-c3cc4cnc(NCCCc5ccc(N)cc5)nc4n(CCCCN)c3=O)c(Cl)c2)n1 [compound 25, 8-(4-Aminobutyl)-2-((3-(4-aminophenyl)propyl)amino)-6-(2-chloro-4-(6-methylpyridin-2-yl)phenyl)pyrido[2,3-d]pyrimidin-7(8H)-one]
- ΔTm 25 (SLK): 5.0 °C
- ΔTm 25 (TAF1): -0.1 °C
- ΔTm 25 (TTK): 1.8 °C
- ΔTm 25 (ULK3): 11.1 °C
- dTm MST1 (MST1): 4.9 °C
- dTm MST3 (MST3): 12.2 °C
- dTm PAK1 (PAK1): 6.8 °C

Structure (SMILES): Cc1cccc(-c2ccc(-c3cc4cnc(NCCCN5CCOCC5)nc4n(CCCCN)c3=O)c(Cl)c2)n1 [compound 26, MR26]
- ΔTm MR26 (26) (SLK): 2.3 °C
- ΔTm MR26 (26) (TAF1): 0.0 °C
- ΔTm MR26 (26) (TTK): -0.2 °C
- ΔTm MR26 (26) (ULK3): 6.7 °C
- dTm MST1 (MST1): 3.6 °C
- dTm MST3 (MST3): 11.6 °C
- dTm PAK1 (PAK1): 4.1 °C

Structure (SMILES): Cc1cccc(-c2ccc(-c3cc4cnc(NCCCN5CCCC5=O)nc4n(CCCCN)c3=O)c(Cl)c2)n1 [compound 27, MR30]
- ΔTm MR30 (27) (CaMK1d): 2.4 °C
- ΔTm MR30 (27) (SLK): 2.6 °C
- ΔTm MR30 (27) (TAF1): 0.0 °C
- ΔTm MR30 (27) (TTK): -0.3 °C
- ΔTm MR30 (27) (ULK3): 7.3 °C
- dTm MST1 (MST1): 1.1 °C
- dTm MST3 (MST3): 10.6 °C
- dTm PAK1 (PAK1): 3.6 °C

Structure (SMILES): Cc1cccc(-c2ccc(-c3cc4cnc(Nc5cc(C(F)(F)F)ccc5C)nc4n(CCCCN)c3=O)c(Cl)c2)n1 [compound 28, 8-(4-Aminobutyl)-6-(2-chloro-4-(6-methylpyridin-2-yl)phenyl)-2-((2-methyl-5-(trifluoromethyl)phenyl)amino)pyrido[2,3-d]pyrimidin-7(8H)-one]
- ΔTm 28 (CaMK1d): 4.8 °C
- ΔTm 28 (SLK): 4.5 °C
- ΔTm 28 (TAF1): 0.4 °C
- ΔTm 28 (TTK): -11.0 °C
- ΔTm 28 (ULK3): 6.5 °C
- dTm MST1 (MST1): 5.8 °C
- dTm MST3 (MST3): 13.0 °C
- dTm PAK1 (PAK1): 5.9 °C

Structure (SMILES): Cc1cccc(-c2ccc(-c3cc4cnc(NCCCN5CCNCC5)nc4n(CCCCN)c3=O)c(Cl)c2)n1 [compound 29, 8-(4-Aminobutyl)-6-(2-chloro-4-(6-methylpyridin-2-yl)phenyl)-2-((3-(piperazin-1-yl)propyl)amino)pyrido[2,3-d]pyrimidin-7(8H)-one]
- ΔTm 29 (CaMK1d): 3.7 °C
- ΔTm 29 (SLK): 3.5 °C
- ΔTm 29 (TAF1): 0.2 °C
- ΔTm 29 (TTK): -0.4 °C
- ΔTm 29 (ULK3): 5.8 °C
- dTm MST1 (MST1): 3.1 °C
- dTm MST3 (MST3): 13.0 °C
- dTm PAK1 (PAK1): 5.0 °C

Structure (SMILES): Cc1cccc(-c2ccc(-c3cc4cnc(Nc5ccc(CCCO)cc5)nc4n(CCCCN)c3=O)c(Cl)c2)n1 [compound 30, 8-(4-Aminobutyl)-6-(2-chloro-4-(6-methylpyridin-2-yl)phenyl)-2-((4-(3-hydroxypropyl)phenyl)amino)pyrido[2,3-d]pyrimidin-7(8H)-one]
- ΔTm 30 (CaMK1d): 6.8 °C
- ΔTm 30 (SLK): 8.6 °C
- ΔTm 30 (TAF1): -0.5 °C
- ΔTm 30 (TTK): 5.6 °C
- ΔTm 30 (ULK3): 14.9 °C
- dTm MST1 (MST1): 8.7 °C
- dTm MST3 (MST3): 16.7 °C
- dTm PAK1 (PAK1): 9.1 °C

Structure (SMILES): Cc1cccc(-c2ccc(-c3cc4cnc(Nc5ccc(F)c(CO)c5)nc4n(CCCCN)c3=O)c(Cl)c2)n1 [compound 33, 8-(4-Aminobutyl)-6-(2-chloro-4-(6-methylpyridin-2-yl)phenyl)-2-((4-fluoro-3-(hydroxymethyl)phenyl)amino)pyrido[2,3-d]pyrimidin-7(8H)-one]
- dTm MST1 (MST1): 8.6 °C
- dTm MST3 (MST3): 16.9 °C
- dTm PAK1 (PAK1): 9.3 °C

Structure (SMILES): COc1ccc(O)c(Nc2ncc3cc(-c4ccc(-c5cccc(C)n5)cc4Cl)c(=O)n(CCCCN)c3n2)c1 [compound 34, 8-(4-Aminobutyl)-6-(2-chloro-4-(6-methylpyridin-2-yl)phenyl)-2-((2-hydroxy-5-methoxy-phenyl)amino)pyrido[2,3-d]pyrimidin-7(8H)-one]
- dTm MST1 (MST1): 3.8 °C
- dTm MST3 (MST3): 11.0 °C
- dTm PAK1 (PAK1): 4.5 °C

Structure (SMILES): COc1cc(N2CCOCC2)ccc1Nc1ncc2cc(-c3ccc(-c4cccc(C)n4)cc3Cl)c(=O)n(CCCCN)c2n1 [compound 35, 8-(4-Aminobutyl)-6-(2-chloro-4-(6-methylpyridin-2-yl)phenyl)-2-((2-methoxy-4-morpholino-phenyl)amino)pyrido[2,3-d]pyrimidin-7(8H)-one]
- dTm MST1 (MST1): 4.6 °C
- dTm MST3 (MST3): 11.0 °C
- dTm PAK1 (PAK1): 5.0 °C

Structure (SMILES): COc1cc(N2CCN(C)CC2)ccc1Nc1ncc2cc(-c3ccc(-c4cccc(C)n4)cc3Cl)c(=O)n(CCCCN)c2n1 [compound 36, 8-(4-Aminobutyl)-6-(2-chloro-4-(6-methylpyridin-2-yl)phenyl)-2-((2-methoxy-4-(4-methylpiperazin-1-yl)phenyl)amino)pyrido[2,3-d]pyrimidin-7(8H)-one]
- dTm MST1 (MST1): 4.0 °C
- dTm MST3 (MST3): 13.5 °C
- dTm PAK1 (PAK1): 8.8 °C
